{
  "source": "the CheMixHub ionic liquid set",
  "assay": "xn = mol fraction of the nth substance listed",
  "settings": "100 kPa",
  "note": "± gives the uncertainty stated by the source.",
  "data": [
    {"smiles": "CC(=O)[O-].CCCC[N+](CCCC)(CCCC)CCCC", "note": "+ CCCCCCCCCCCC[N+](C)(C)C.[Br-] + O", "values": [
      {"measurement": "viscosity", "setting": "293.15 K, x2 = 5.421e-05, x1 = 0.0001802", "value": "1.029 ± 0.029", "unit": "mPa·s"},
      {"measurement": "viscosity", "setting": "293.15 K, x2 = 0.0001084, x1 = 0.0001801", "value": "1.031 ± 0.029", "unit": "mPa·s"},
      {"measurement": "viscosity", "setting": "293.15 K, x2 = 0.0001626, x1 = 0.0001801", "value": "1.032 ± 0.029", "unit": "mPa·s"},
      {"measurement": "viscosity", "setting": "293.15 K, x2 = 0.0002168, x1 = 0.0001801", "value": "1.033 ± 0.029", "unit": "mPa·s"},
      {"measurement": "viscosity", "setting": "293.15 K, x2 = 0.000271, x1 = 0.0001801", "value": "1.034 ± 0.029", "unit": "mPa·s"},
      {"measurement": "viscosity", "setting": "293.15 K, x2 = 0.0003252, x1 = 0.0001801", "value": "1.034 ± 0.029", "unit": "mPa·s"},
      {"measurement": "viscosity", "setting": "293.15 K, x2 = 0.0003793, x1 = 0.0001801", "value": "1.035 ± 0.029", "unit": "mPa·s"},
      {"measurement": "viscosity", "setting": "293.15 K, x2 = 0.0004335, x1 = 0.0001801", "value": "1.035 ± 0.029", "unit": "mPa·s"},
      {"measurement": "viscosity", "setting": "293.15 K, x2 = 0.0004877, x1 = 0.0001801", "value": "1.035 ± 0.029", "unit": "mPa·s"},
      {"measurement": "viscosity", "setting": "293.15 K, x2 = 0.0005418, x1 = 0.0001801", "value": "1.035 ± 0.029", "unit": "mPa·s"},
      {"measurement": "viscosity", "setting": "298.15 K, x2 = 5.421e-05, x1 = 0.0001802", "value": "0.916 ± 0.029", "unit": "mPa·s"},
      {"measurement": "viscosity", "setting": "298.15 K, x2 = 0.0001084, x1 = 0.0001801", "value": "0.919 ± 0.029", "unit": "mPa·s"},
      {"measurement": "viscosity", "setting": "298.15 K, x2 = 0.0001626, x1 = 0.0001801", "value": "0.92 ± 0.029", "unit": "mPa·s"},
      {"measurement": "viscosity", "setting": "298.15 K, x2 = 0.0002168, x1 = 0.0001801", "value": "0.922 ± 0.029", "unit": "mPa·s"},
      {"measurement": "viscosity", "setting": "298.15 K, x2 = 0.000271, x1 = 0.0001801", "value": "0.924 ± 0.029", "unit": "mPa·s"},
      {"measurement": "viscosity", "setting": "298.15 K, x2 = 0.0003252, x1 = 0.0001801", "value": "0.926 ± 0.029", "unit": "mPa·s"},
      {"measurement": "viscosity", "setting": "298.15 K, x2 = 0.0003793, x1 = 0.0001801", "value": "0.928 ± 0.029", "unit": "mPa·s"},
      {"measurement": "viscosity", "setting": "298.15 K, x2 = 0.0004335, x1 = 0.0001801", "value": "0.929 ± 0.029", "unit": "mPa·s"},
      {"measurement": "viscosity", "setting": "298.15 K, x2 = 0.0004877, x1 = 0.0001801", "value": "0.93 ± 0.029", "unit": "mPa·s"},
      {"measurement": "viscosity", "setting": "298.15 K, x2 = 0.0005418, x1 = 0.0001801", "value": "0.931 ± 0.029", "unit": "mPa·s"},
      {"measurement": "viscosity", "setting": "303.15 K, x2 = 5.421e-05, x1 = 0.0001802", "value": "0.808 ± 0.028", "unit": "mPa·s"},
      {"measurement": "viscosity", "setting": "303.15 K, x2 = 0.0001084, x1 = 0.0001801", "value": "0.81 ± 0.028", "unit": "mPa·s"},
      {"measurement": "viscosity", "setting": "303.15 K, x2 = 0.0001626, x1 = 0.0001801", "value": "0.813 ± 0.028", "unit": "mPa·s"},
      {"measurement": "viscosity", "setting": "303.15 K, x2 = 0.0002168, x1 = 0.0001801", "value": "0.816 ± 0.028", "unit": "mPa·s"},
      {"measurement": "viscosity", "setting": "303.15 K, x2 = 0.000271, x1 = 0.0001801", "value": "0.817 ± 0.028", "unit": "mPa·s"},
      {"measurement": "viscosity", "setting": "303.15 K, x2 = 0.0003252, x1 = 0.0001801", "value": "0.82 ± 0.028", "unit": "mPa·s"},
      {"measurement": "viscosity", "setting": "303.15 K, x2 = 0.0003793, x1 = 0.0001801", "value": "0.82 ± 0.028", "unit": "mPa·s"},
      {"measurement": "viscosity", "setting": "303.15 K, x2 = 0.0004335, x1 = 0.0001801", "value": "0.82 ± 0.028", "unit": "mPa·s"},
      {"measurement": "viscosity", "setting": "303.15 K, x2 = 0.0004877, x1 = 0.0001801", "value": "0.822 ± 0.028", "unit": "mPa·s"},
      {"measurement": "viscosity", "setting": "303.15 K, x2 = 0.0005418, x1 = 0.0001801", "value": "0.821 ± 0.028", "unit": "mPa·s"},
      {"measurement": "viscosity", "setting": "308.15 K, x2 = 5.421e-05, x1 = 0.0001802", "value": "0.724 ± 0.028", "unit": "mPa·s"},
      {"measurement": "viscosity", "setting": "308.15 K, x2 = 0.0001084, x1 = 0.0001801", "value": "0.726 ± 0.028", "unit": "mPa·s"},
      {"measurement": "viscosity", "setting": "308.15 K, x2 = 0.0001626, x1 = 0.0001801", "value": "0.727 ± 0.028", "unit": "mPa·s"},
      {"measurement": "viscosity", "setting": "308.15 K, x2 = 0.0002168, x1 = 0.0001801", "value": "0.729 ± 0.028", "unit": "mPa·s"},
      {"measurement": "viscosity", "setting": "308.15 K, x2 = 0.000271, x1 = 0.0001801", "value": "0.729 ± 0.028", "unit": "mPa·s"},
      {"measurement": "viscosity", "setting": "308.15 K, x2 = 0.0003252, x1 = 0.0001801", "value": "0.73 ± 0.028", "unit": "mPa·s"},
      {"measurement": "viscosity", "setting": "308.15 K, x2 = 0.0003793, x1 = 0.0001801", "value": "0.731 ± 0.028", "unit": "mPa·s"},
      {"measurement": "viscosity", "setting": "308.15 K, x2 = 0.0004335, x1 = 0.0001801", "value": "0.731 ± 0.028", "unit": "mPa·s"},
      {"measurement": "viscosity", "setting": "308.15 K, x2 = 0.0004877, x1 = 0.0001801", "value": "0.732 ± 0.028", "unit": "mPa·s"},
      {"measurement": "viscosity", "setting": "308.15 K, x2 = 0.0005418, x1 = 0.0001801", "value": "0.732 ± 0.028", "unit": "mPa·s"},
      {"measurement": "viscosity", "setting": "313.15 K, x2 = 5.421e-05, x1 = 0.0001802", "value": "0.657 ± 0.027", "unit": "mPa·s"},
      {"measurement": "viscosity", "setting": "313.15 K, x2 = 0.0001084, x1 = 0.0001801", "value": "0.659 ± 0.027", "unit": "mPa·s"},
      {"measurement": "viscosity", "setting": "313.15 K, x2 = 0.0001626, x1 = 0.0001801", "value": "0.662 ± 0.027", "unit": "mPa·s"},
      {"measurement": "viscosity", "setting": "313.15 K, x2 = 0.0002168, x1 = 0.0001801", "value": "0.664 ± 0.027", "unit": "mPa·s"},
      {"measurement": "viscosity", "setting": "313.15 K, x2 = 0.000271, x1 = 0.0001801", "value": "0.665 ± 0.027", "unit": "mPa·s"},
      {"measurement": "viscosity", "setting": "313.15 K, x2 = 0.0003252, x1 = 0.0001801", "value": "0.667 ± 0.028", "unit": "mPa·s"},
      {"measurement": "viscosity", "setting": "313.15 K, x2 = 0.0003793, x1 = 0.0001801", "value": "0.667 ± 0.028", "unit": "mPa·s"},
      {"measurement": "viscosity", "setting": "313.15 K, x2 = 0.0004335, x1 = 0.0001801", "value": "0.668 ± 0.028", "unit": "mPa·s"},
      {"measurement": "viscosity", "setting": "313.15 K, x2 = 0.0004877, x1 = 0.0001801", "value": "0.669 ± 0.028", "unit": "mPa·s"},
      {"measurement": "viscosity", "setting": "313.15 K, x2 = 0.0005418, x1 = 0.0001801", "value": "0.669 ± 0.028", "unit": "mPa·s"},
      {"measurement": "viscosity", "setting": "318.15 K, x2 = 5.421e-05, x1 = 0.0001802", "value": "0.607 ± 0.027", "unit": "mPa·s"},
      {"measurement": "viscosity", "setting": "318.15 K, x2 = 0.0001084, x1 = 0.0001801", "value": "0.607 ± 0.027", "unit": "mPa·s"},
      {"measurement": "viscosity", "setting": "318.15 K, x2 = 0.0001626, x1 = 0.0001801", "value": "0.609 ± 0.027", "unit": "mPa·s"},
      {"measurement": "viscosity", "setting": "318.15 K, x2 = 0.0002168, x1 = 0.0001801", "value": "0.61 ± 0.027", "unit": "mPa·s"},
      {"measurement": "viscosity", "setting": "318.15 K, x2 = 0.000271, x1 = 0.0001801", "value": "0.611 ± 0.027", "unit": "mPa·s"},
      {"measurement": "viscosity", "setting": "318.15 K, x2 = 0.0003252, x1 = 0.0001801", "value": "0.613 ± 0.027", "unit": "mPa·s"},
      {"measurement": "viscosity", "setting": "318.15 K, x2 = 0.0003793, x1 = 0.0001801", "value": "0.613 ± 0.027", "unit": "mPa·s"},
      {"measurement": "viscosity", "setting": "318.15 K, x2 = 0.0004335, x1 = 0.0001801", "value": "0.617 ± 0.027", "unit": "mPa·s"},
      {"measurement": "viscosity", "setting": "318.15 K, x2 = 0.0004877, x1 = 0.0001801", "value": "0.618 ± 0.027", "unit": "mPa·s"},
      {"measurement": "viscosity", "setting": "318.15 K, x2 = 0.0005418, x1 = 0.0001801", "value": "0.619 ± 0.027", "unit": "mPa·s"}
    ]}
  ]
}
